Test results: PMC8405091, “Microwave-assisted Phospha-Michael addition reactions in the 13α-oestrone series and in vitro antiproliferative properties” (Journal of Enzyme Inhibition and Medicinal Chemistry, 2021)

Assays:
Assay type in all cases: cell-based, human
MCF-7 cells = experiment: MTT antiproliferative assay, MCF-7; details: 72 h; for inhibition at 10 µM / inhibition at 30 µM: Homo sapiens, MCF7, 72 h, read-out: Growth inhibition, % ± SEM
Method: (§1) The antiproliferative properties of the newly synthesized compounds (9–20) and their starting materials (4 and 5) were determined on a panel of human adherent cancer cell lines. MCF-7, MDA-MB-231 and T47D were isolated from breast cancers differing in biochemical background, while A2780 cells were isolated from ovarian cancer. HeLa and SiHa are cervical cancer cell lines positive for HPV-18 and HPV-16, respectively, while C33-A cervical cancer cells are negative for HPV. Moreover, two oropharyngeal cancer cell lines were also utilized: the HPV-negative UPCI-SCC-131 and HPV-16 positive UPCI-SCC-154. The cancer selectivity of compounds was tested on the non-cancerous mouse embryo fibroblast cell line NIH/3T3. All cell lines were purchased from European Collection of Cell Cultures (ECCAC, Salisbury, UK) exception for SiHa and C33-A (American Tissue Culture Collection, Manassas, VA, USA) and HN-SCC-131 and UPCI-SCC-154 (German Collection of Microorganisms and Cell Cultures GmbH, Braunschweig, Germany). Cells were cultivated in minimal essential medium supplemented with 10% fetal bovine serum, 1% non-essential amino acids and an antibiotic–antimycotic mixture. The medium of oropharyngeal cancer cells additionally contained 2.0 mM L-glutamine. All media and supplements were obtained from Lonza Group Ltd., Basel, Switzerland. Near-confluent cancer cells were seeded onto a 96-well microplate at a density of 5,000 cells/well, except for C33-A which were seeded at 10,000/well. After overnight standing, new medium containing the tested compounds at 10 and 30 µM final concentration was added. After incubation for 72 h at 37 °C in humidified air containing 5% CO2, the living cells were assayed by the addition of 20 μL of 5 mg/ml 3-(4,5-dimethylthiazol-2-yl)-2,5-diphenyltetrazolium bromide (MTT) solution. MTT was converted by intact mitochondrial reductase and precipitated as purple crystals during a 4-h contact period. The medium was next removed and the precipitated formazan crystals were dissolved in 100 μL of DMSO during a 60-min period of shaking at 37 ^оC.
(§2) All in vitro experiments were carried out twice with five parallels. Stock solutions of the tested substances (10 mM) were prepared in DMSO. […] Cisplatin (Ebewe Pharma GmbH, Unterach, Austria) was used as positive control.

C33-A cells = experiment: MTT antiproliferative assay, C33-A; details: 72 h; for inhibition at 10 µM / inhibition at 30 µM: Homo sapiens, C-33-A; for inhibition at 10 µM: read-out: Growth inhibition, % ± SEM, C33-A, 10 μM; for inhibition at 30 µM: read-out: Growth inhibition, % ± SEM, C33-A, 30 μM; for Growth inhibition; % ± SEM: C33-A
Method: as §1, §2

T47D cells = experiment: MTT antiproliferative assay, T47D; details: 72 h; for inhibition at 10 µM / inhibition at 30 µM: Homo sapiens; for inhibition at 10 µM: read-out: Growth inhibition, % ± SEM, 10 μM; for inhibition at 30 µM: read-out: Growth inhibition, % ± SEM, 30 μM
Method: as §1, §2

UPCI-SCC-131 cells = experiment: MTT antiproliferative assay, UPCI-SCC-131; details: 72 h; for inhibition at 10 µM / inhibition at 30 µM: Homo sapiens, read-out: Growth inhibition, % ± SEM
Method: as §1, §2

HeLa cells = experiment: MTT antiproliferative assay, HeLa; details: 72 h; for inhibition at 10 µM / inhibition at 30 µM: Homo sapiens; for inhibition at 10 µM: read-out: Growth inhibition, % ± SEM, 10 μM; for inhibition at 30 µM: read-out: Growth inhibition, % ± SEM, 30 μM
Method: as §1, §2

UPCI-SCC-154 cells = experiment: MTT antiproliferative assay, UPCI-SCC-154; details: 72 h, 72 h; for inhibition at 10 µM / inhibition at 30 µM: Homo sapiens, read-out: Growth inhibition, % ± SEM
Method: as §1, §2

MDA-MB-231 cells = experiment: MTT antiproliferative assay, MDA-MB-231; details: for inhibition at 10 µM / inhibition at 30 µM: Homo sapiens, MDA-MB-231, 72 h, read-out: Growth inhibition, % ± SEM; for Growth inhibition; % ± SEM: 72 h
Method: as §1, §2

SiHa cells = experiment: MTT antiproliferative assay, SiHa; details: 72 h; for inhibition at 10 µM / inhibition at 30 µM: Homo sapiens; for inhibition at 10 µM: read-out: Growth inhibition, % ± SEM, 10 μM; for inhibition at 30 µM: read-out: Growth inhibition, % ± SEM, 30 μM
Method: as §1, §2

A2780 cells = experiment: MTT antiproliferative assay, A2780; details: 72 h; for inhibition at 10 µM / inhibition at 30 µM: Homo sapiens, A2780, 72 h, read-out: Growth inhibition, % ± SEM
Method: as §1, §2

Structure (SMILES) | inhibition at 10 µM (MCF-7 cells; MCF-7, 10 μM) [%] | inhibition at 30 µM (MCF-7 cells; MCF-7, 30 μM) [%] | inhibition at 10 µM (C33-A cells) [%] | inhibition at 30 µM (C33-A cells) [%] | inhibition at 10 µM (T47D cells) [%] | inhibition at 30 µM (T47D cells) [%] | inhibition at 10 µM (HeLa cells) [%] | inhibition at 10 µM (UPCI-SCC-154 cells; UPCI-SCC-154, 10 μM) [%] | inhibition at 10 µM (MDA-MB-231 cells) [%] | inhibition at 30 µM (MDA-MB-231 cells) [%] | inhibition at 10 µM (SiHa cells) [%] | inhibition at 10 µM (A2780 cells; A2780, 10 μM) [%] | inhibition at 30 µM (A2780 cells; A2780, 30 μM) [%] | inhibition at 10 µM (UPCI-SCC-131 cells; UPCI-SCC-131, 10 μM) [%] | inhibition at 30 µM (UPCI-SCC-131 cells; UPCI-SCC-131, 30 μM) [%] | inhibition at 30 µM (HeLa cells) [%] | inhibition at 30 µM (UPCI-SCC-154 cells; UPCI-SCC-154, 30 μM) [%] | inhibition at 30 µM (SiHa cells) [%] | other results
CC12CCC3c4ccc(OCc5ccccc5)cc4CCC3C1CC(CP(=O)(c1ccc3ccccc3c1)c1ccc3ccccc3c1)C2=O (stereo not drawn) [Compound 19, [(3-benzyloxy-17-oxo-13α-oestra-1,3,5(10)-trien-16α-yl)methyl]di(naphtalen-2-yl)phosphine oxide] | 31.8 ± 2.47 | 40.6 ± 1.71 | 28.1 ± 1.39 | 34.7 ± 1.7 | 59.4 ± 2.44 | 62.4 ± 1.7 | 31 ± 1.11 | 34.3 ± 2.8 | < 20 | < 20 | 23.2 ± 1.36 | < 20 | 28.5 ± 2.35 |  |  |  |  |  | Growth inhibition; % ± SEM (UPCI-SCC-131 cells; UPCI-SCC-131, 10 μM, 10 µM): – (Inhibition values <20% are not presented.); Growth inhibition; % ± SEM (UPCI-SCC-131 cells; UPCI-SCC-131, 30 μM, 30 µM): 40.98 ± 2.94%; Growth inhibition; % ± SEM (HeLa cells; 30 μM): 48.89 ± 0.90%; Growth inhibition; % ± SEM (UPCI-SCC-154 cells; UPCI-SCC-154, 30 μM, 30 µM): 48.81 ± 2.15%; Growth inhibition; % ± SEM (SiHa cells; 30 μM): 40.30 ± 2.00%
COc1ccc2c(c1)CC[C@@H]1[C@@H]2CC[C@@]2(C)C(=O)[C@@H](CP(=O)(c3ccccc3)c3ccccc3)C[C@@H]12 [Compound 10, [(3-methoxy-17-oxo-13α-oestra-1,3,5(10)-trien-16β-yl)methyl]diphenylphosphine oxide] | < 20 | 35.9 ± 3.3 | 22 ± 1.84 | 27.2 ± 1.85 | < 20 | 61.1 ± 1.06 | < 20 | < 20 | < 20 | < 20 | < 20 | < 20 | 64.2 ± 2.65 | 39.8 ± 1.36 | 72.9 ± 1.7 | 21.5 ± 2.99 | 24.3 ± 2.84 | < 20 | 
C[C@@]12CC[C@@H]3c4ccc(OCc5ccccc5)cc4CC[C@H]3[C@@H]1C[C@@H](CP(=O)(c1ccccc1)c1ccccc1)C2=O [Compound 11, [(3-benzyloxy-17-oxo-13α-oestra-1,3,5(10)-trien-16α-yl)methyl]diphenylphosphine oxide] | < 20 | 37.1 ± 0.72 | < 20 | 40.3 ± 0.95 | 24.7 ± 1.7 | 59 ± 1.38 | < 20 | < 20 | < 20 | < 20 | < 20 | < 20 | 21.9 ± 2.63 | 20.9 ± 1.67 | 62.5 ± 1.4 | 23.8 ± 2.11 | 38.6 ± 2.6 | 30.2 ± 2.99 | 
COc1ccc2c(c1)CCC1C2CCC2(C)C(=O)C(CP(=O)(c3ccc4ccccc4c3)c3ccc4ccccc4c3)CC12 (stereo not drawn) [Compound 18, [(3-methoxy-17-oxo-13α-oestra-1,3,5(10)-trien-16β-yl)methyl]di(naphtalen-2-yl)phosphine oxide] |  |  |  |  |  |  |  |  |  |  |  |  |  |  |  |  |  |  | Growth inhibition; % ± SEM (MCF-7 cells; MCF-7, 10 μM): – (Inhibition values <20% are not presented.); Growth inhibition; % ± SEM (MCF-7 cells; MCF-7, 30 μM): – (Inhibition values <20% are not presented.); Growth inhibition; % ± SEM (C33-A cells; 10 μM): – (Inhibition values <20% are not presented.); Growth inhibition; % ± SEM (C33-A cells; 30 μM): 20.25 ± 1.01%; Growth inhibition; % ± SEM (T47D cells; 10 μM): – (Inhibition values <20% are not presented.); Growth inhibition; % ± SEM (T47D cells; 30 μM): – (Inhibition values <20% are not presented.); Growth inhibition; % ± SEM (UPCI-SCC-131 cells; UPCI-SCC-131, 10 μM, 10 µM): 46.39 ± 1.19%; Growth inhibition; % ± SEM (UPCI-SCC-131 cells; UPCI-SCC-131, 30 μM, 30 µM): 64.55 ± 1.29%; Growth inhibition; % ± SEM (HeLa cells; 10 μM): – (Inhibition values <20% are not presented.); Growth inhibition; % ± SEM (HeLa cells; 30 μM): – (Inhibition values <20% are not presented.); Growth inhibition; % ± SEM (UPCI-SCC-154 cells; UPCI-SCC-154, 10 μM): – (Inhibition values <20% are not presented.); Growth inhibition; % ± SEM (UPCI-SCC-154 cells; UPCI-SCC-154, 30 μM, 30 µM): – (Inhibition values <20% are not presented.); Growth inhibition; % ± SEM (MDA-MB-231 cells; MDA-MB-231, 10 μM): – (Inhibition values <20% are not presented.); Growth inhibition; % ± SEM (MDA-MB-231 cells; MDA-MB-231, 30 μM): – (Inhibition values <20% are not presented.); Growth inhibition; % ± SEM (SiHa cells; 10 μM): – (Inhibition values <20% are not presented.); Growth inhibition; % ± SEM (SiHa cells; 30 μM): – (Inhibition values <20% are not presented.); Growth inhibition; % ± SEM (A2780 cells; A2780, 10 μM): – (Inhibition values <20% are not presented.); Growth inhibition; % ± SEM (A2780 cells; A2780, 30 μM): – (Inhibition values <20% are not presented.)
Cc1ccc(P(=O)(C[C@@H]2C[C@H]3[C@@H]4CCc5cc(OCc6ccccc6)ccc5[C@H]4CC[C@@]3(C)C2=O)c2ccc(C)cc2)cc1 [Compound 15, [(3-benzyloxy-17-oxo-13α-oestra-1,3,5(10)-trien-16α-yl)methyl]di-p-tolylphosphine oxide] | < 20 | < 20 | < 20 | 26.9 ± 0.84 | 39.1 ± 2.01 | 58.5 ± 0.8 | < 20 | < 20 | < 20 | < 20 | < 20 | < 20 | 49.4 ± 2.06 | 24.6 ± 1.39 | 60.2 ± 1.32 | 27.4 ± 1.57 | 34.7 ± 1.36 | < 20 | 
COc1ccc2c(c1)CCC1C2CCC2(C)C(=O)C(CP(=O)(c3ccc4ccccc4c3)c3ccc4ccccc4c3)CC12 (stereo not drawn) [Compound 17, [(3-methoxy-17-oxo-13α-oestra-1,3,5(10)-trien-16α-yl)methyl]di(naphtalen-2-yl)phosphine oxide] | < 20 | < 20 | < 20 | < 20 | < 20 | 27.1 ± 2.93 | < 20 | < 20 | < 20 | < 20 | < 20 | < 20 | < 20 | 26.5 ± 1.7 | 45.3 ± 1.84 | < 20 | 20.3 ± 2.69 | < 20 | 
Cc1ccc(P(=O)(C[C@H]2C[C@H]3[C@@H]4CCc5cc(OCc6ccccc6)ccc5[C@H]4CC[C@@]3(C)C2=O)c2ccc(C)cc2)cc1 [Compound 16, [(3-benzyloxy-17-oxo-13α-oestra-1,3,5(10)-trien-16β-yl)methyl]di-p-tolylphosphine oxide] | < 20 | < 20 | < 20 | 59.1 ± 0.69 | 23.6 ± 1.22 | 64.5 ± 1.6 | < 20 | < 20 | < 20 | < 20 | < 20 | < 20 | 67.3 ± 3.04 | 49.5 ± 2.27 | 67.4 ± 1.11 | 31.8 ± 2.27 | 31.6 ± 2.41 | < 20 | 
